US11364275B2, “Linear lipopeptide paenipeptins and methods of using the same” (priority 2017, dated 2022)
≈ marks a conversion by molar mass, not a printed value. Like-named read-outs stand apart in the source and are kept apart here. Where a SMILES comes first, the peptide text is derived from it. [ ]: non-standard residue; d: D form. The star is where a group is joined. Dab = NCC[C@H](N)C(=O)O; Cbz = O=C(OCc1ccccc1)*

Legend:
[1] = tested on: methicillin-resistant S. aureus ATCC 43300; format: cell-based, Staphylococcus aureus; conditions: S. aureus ATCC 43300; TSB
Description: (§3) The minimum inhibitory concentration (MIC) of paenipeptin analogues was determined using the broth microdilution method (Wirker, M. A. Methods for Dilution Antimicrobial Susceptibility Tests for Bacteria that Grow Aerobically: Approved Standard M07-A8; Clinical and Laboratory Standards Institute, Wayne, Pa., 2009). Seven reference strains (Acinetobacter baumannii ATCC 19606, Escherichia coli ATCC 25922, Klebsiella pneumoniae ATCC 13883, Pseudomonas aeruginosa ATCC 27853, Enterococcus faecium ATCC 19434, Staphylococcus aureus ATCC 29213 and methicillin-resistant S. aureus ATCC 43300) were subjected to MIC testing.
(§4) Paenipeptin analogues were two-fold diluted in tryptic soy broth (TSB; Becton Dickinson) and mixed with an equal volume of bacterial suspensions in TSB containing approximately 1.5×10^5 colony-forming units (CFU)/mL in a clear UV-sterilized 96-well microtiter plate (NBS, Corning Inc., Corning, N.Y.). […] The microtiter plate was incubated at 37° C. for 18-20 h.

[2] = tested on: A. baumannii FDA-CDC AR 0037; conditions: A. baumannii AR 0037
[3] = tested on: Staphylococcus aureus ATCC 29213; format: cell-based; conditions: S. aureus ATCC 29213; TSB
[4] = tested on: A. baumannii FDA-CDC AR 0052; conditions: A. baumannii AR 0052
[5] = tested on: K. pneumoniae FDA-CDC AR 0044; conditions: K. pneumoniae AR 0044
[6] = tested on: A. baumannii FDA-CDC AR 0070; conditions: A. baumannii AR 0070
[7] = tested on: Enterococcus faecium ATCC 19434; format: cell-based; conditions: E. faecium ATCC 19434; TSB
[8] = tested on: A. baumannii FDA-CDC AR 0063; conditions: A. baumannii AR 0063
[9] = tested on: A. baumannii FDA-CDC AR 0063; assay: Time-kill kinetics in 95% human serum, alone and combined; format: cell-based, Acinetobacter baumannii; conditions: A. baumannii AR 0063, 24 h
Description: Bacterial viable counts were determined at 0, 2, 4, 6, and 24 h after antimicrobial treatment. Bacterial surviving counts at 24 h endpoints were subjected to analysis of variance (ANOVA) followed by Tukey's honest significant difference (HSD) tests using SPSS Statistics (version 24; SPSS, Inc., Chicago, Ill., USA).
To further test the therapeutic potential of paenipeptin analogues, the time-kill kinetics assays of paenipeptins alone or in combination with other antibiotics were performed in 95% human serum in vitro. Without antimicrobial treatment, the population of A. baumannii FDA-CDC AR 0063 increased from 5.8 log to 9.3 log within 24 h. […] (FIG. 7A).

[10] = tested on: Acinetobacter baumannii ATCC 19606; format: cell-based; conditions: A. baumannii ATCC 19606; TSB
[11] = tested on: A. baumannii FDA-CDC AR 0083; conditions: A. baumannii AR 0083
[12] = tested on: Acinetobacter baumannii ATCC 19606; assay: MIC of antibiotics with or without paenipeptin analogues (potentiation); format: cell-based; conditions: A. baumannii ATCC 19606
Excerpt: (§1) Gram-negative bacteria, including Acinetobacter and Klebsiella, are intrinsically resistant to the hydrophobic antibiotic rifampicin.

[13] = tested on: Klebsiella pneumoniae ATCC 13883; assay: as above; format: cell-based; conditions: K. pneumoniae ATCC 13883
Excerpt: as §1

[14] = tested on: K. pneumoniae FDA-CDC AR 0080; conditions: K. pneumoniae AR 0080
[15] = tested on: Klebsiella pneumoniae ATCC 13883; format: cell-based; conditions: K. pneumoniae ATCC 13883; TSB
Description: as §3, §4

[16] = tested on: human kidney cell line (HEK 293); assay: Cytotoxicity, MTT assay; format: cell-based; conditions: HEK 293; 105 μg/ml; 24 h
Description: (§2) Cytotoxicity of paenipeptin analogues was determined against a human kidney cell line (HEK 293) using MTT assays (Huang E, Yousef AE. 2014. Paenibacterin, a novel broad-spectrum lipopeptide antibiotic, neutralises endotoxins and promotes survival in a murine model of Pseudomonas aeruginosa-induced sepsis. Int J Antimicrob Agents 44: 74-77). Cell viability was measured at 24 h following the addition of lipopeptides at concentrations between 30-105 μg/ml. The viability of human embryonic kidney cells (HEK 293) decreased with the increase of paenipeptin concentration. The viability of HEK 293 cells in the presence of paenipeptin analogue 1 and 15 at 105 μg/ml was 61% and 67%, respectively (Table 10). The relatively low cytotoxicity of paenipeptin analogue 1 and 15 was correlated with their low hemolytic activity against red blood cells.

[17] = Cytotoxicity, MTT assay; format: cell-based, human; conditions: human, HEK 293 cells, HEK 293, 24 h, read-out: Viability
Description: as §2

[18] = tested on: Pseudomonas aeruginosa ATCC 27853; format: cell-based; conditions: P. aeruginosa ATCC 27853; TSB
[19] = tested on: K. pneumoniae FDA-CDC AR 0097; conditions: K. pneumoniae AR 0097
[20] = tested on: K. pneumoniae FDA-CDC AR 0068; conditions: K. pneumoniae AR 0068
[21] = tested on: K. pneumoniae FDA-CDC AR 0034; conditions: K. pneumoniae AR 0034

With `CC[C@H](C)[C@H](NC(=O)[C@H](CCN)NC(=O)OCc1ccccc1)C(=O)N[C@@H](CCN)C(=O)N[C@H](Cc1ccccc1)C(=O)N[C@@H](CC(C)C)C(=O)N[C@@H](CCN)C(=O)N[C@@H](C(=O)N[C@@H](CC(C)C)C(=O)N[C@@H](CO)C(N)=O)C(C)C` [Analogue 15] (Cbz-[Dab]I[Dab][dF]L[Dab][dV]LS-NH2) the MIC [1] was >32 µg/mL, the “MIC of rifampicin at the presence of PMBN or paenipeptin analogue at 4 μg/ml” value [2] was ≤0.0019 μg/ml and the MIC alone ([2]; 10% FBS) was 4 µg/mL (≈ 3.56 µM). The MIC alone ([2]; No FBS) was 8 µg/mL (≈ 7.11 µM), the “increase in antibiotic activity of clarithromycin” value ([2]; analogue at 4 μg/mL) was 8192 fold and the MIC [3] was >32 µg/mL. The MIC alone ([4]; 10% FBS) was <0.5 µg/mL, the MIC alone ([4]; No FBS) was ≤0.5 µg/mL and the “MIC of clarithromycin at the presence of PMBN or paenipeptin analogue at 4 μg/ml” value [5] was 0.0078-0.0156 μg/ml. The “MIC of rifampicin at the presence of PMBN or paenipeptin analogue at 4 μg/ml” value [5] was ≤0.0019 μg/ml, the MIC alone ([5]; 10% FBS) was 16 to 32 µg/mL and the MIC alone ([5]; No FBS) was 32 µg/mL (≈ 28.5 µM). The MIC alone ([6]; 10% FBS) was 0.5 to 1 µg/mL, the MIC alone ([6]; No FBS) was ≤0.5 µg/mL and the MIC [7] was >32 µg/mL. For the same molecule, the MIC alone ([8]; 10% FBS) was 2 µg/mL (≈ 1.78 µM), the MIC alone ([8]; No FBS) was 0.5 to 4 µg/mL and the “decrease of bacterial population, analogue 4 μg/ml in combination with rifampicin 4 μg/ml” value [9] was 2.7 log. The “log reduction, analogue 4 μg/ml in combination with clarithromycin 4 μg/ml” value [9] was 0.7 log, the MIC [10] was 16 µg/mL (≈ 14.2 µM) and the “MIC of clarithromycin at the presence of PMBN or paenipeptin analogue at 4 μg/ml” value [11] was 1-4 μg/ml. For the same molecule, the “MIC of rifampicin at the presence of PMBN or paenipeptin analogue at 4 μg/ml” value [11] was 0.0313-0.0625 μg/ml, the MIC alone ([11]; 10% FBS) was 4 to 8 µg/mL and the MIC alone ([11]; No FBS) was 8 to 16 µg/mL. For the same molecule, the “MIC of rifampicin at 2 μg/mL of paenipeptin analogue” value [12] was 0.0019-0.0039 μg/ml, the “MIC of rifampicin at 2 μg/mL of paenipeptin analogue” value [13] was 0.0039 μg/ml and the “MIC of rifampicin at 4 μg/mL of paenipeptin analogue” value [13] was 0.00195-0.0039 μg/ml. The “Sensitization factor (rifampicin)” value ([13]; MIC without / with 4 μg/mL paenipeptin) was 4,096-8,192, the “MIC of clarithromycin at the presence of PMBN or paenipeptin analogue at 4 μg/ml” value [14] was 0.0156 μg/ml and the “MIC of rifampicin at the presence of PMBN or paenipeptin analogue at 4 μg/ml” value [14] was 0.0313 μg/ml. The MIC alone ([14]; 10% FBS) was 32 µg/mL (≈ 28.5 µM), the MIC alone ([14]; No FBS) was 32 µg/mL (≈ 28.5 µM) and the MIC [15] was >32 µg/mL. The Viability [16] was 67%, the viability at 24 h, 30 µg/mL ([17]; 30 μg/ml) was 91.4 ± 4.09% and the viability at 24 h, 45 µg/mL ([17]; 45 μg/ml) was 84.3 ± 8.12%. The viability at 24 h, 60 µg/mL ([17]; 60 μg/ml) was 82 ± 4.54%, the viability at 24 h, 75 µg/mL ([17]; 75 μg/ml) was 73.3 ± 5.37% and the viability at 24 h, 90 µg/mL ([17]; 90 μg/ml) was 67.1 ± 10%. For the same molecule, the viability at 24 h, 105 µg/mL ([17]; 105 μg/ml) was 67.5 ± 9.66%, the MIC [18] was 16 µg/mL (≈ 14.2 µM) and the “MIC of clarithromycin at the presence of PMBN or paenipeptin analogue at 4 μg/ml” value [19] was 0.0078-0.0156 μg/ml. The “MIC of rifampicin at the presence of PMBN or paenipeptin analogue at 4 μg/ml” value [19] was 0.0019-0.0039 μg/ml, the MIC alone ([19]; 10% FBS) was 16 to 32 µg/mL and the MIC alone ([19]; No FBS) was >32 µg/mL. For the same molecule, the “MIC of clarithromycin at the presence of PMBN or paenipeptin analogue at 4 μg/ml” value [20] was >32 μg/ml, the “MIC of rifampicin at the presence of PMBN or paenipeptin analogue at 4 μg/ml” value [20] was 0.0039-0.0078 μg/ml and the MIC alone ([20]; 10% FBS) was >32 µg/mL. The MIC alone ([20]; No FBS) was >32 µg/mL, the “MIC of clarithromycin at the presence of PMBN or paenipeptin analogue at 4 μg/ml” value [21] was 0.125-0.5 μg/ml and the “MIC of rifampicin at the presence of PMBN or paenipeptin analogue at 4 μg/ml” value [21] was ≤0.0019 μg/ml. For the same molecule, the MIC alone ([21]; 10% FBS) was >32 µg/mL and the MIC alone ([21]; No FBS) was ≥32 µg/mL.
